According to patent US11332459B2 (TEIJIN PHARMA LIMITED, priority 2017, dated 2022):

Biological target: T1, human TRPC6 (Homo sapiens, UniProt Q9Y210)
T1 construct: expressed in transfected cells
T1 sequence (Q9Y210 1-931): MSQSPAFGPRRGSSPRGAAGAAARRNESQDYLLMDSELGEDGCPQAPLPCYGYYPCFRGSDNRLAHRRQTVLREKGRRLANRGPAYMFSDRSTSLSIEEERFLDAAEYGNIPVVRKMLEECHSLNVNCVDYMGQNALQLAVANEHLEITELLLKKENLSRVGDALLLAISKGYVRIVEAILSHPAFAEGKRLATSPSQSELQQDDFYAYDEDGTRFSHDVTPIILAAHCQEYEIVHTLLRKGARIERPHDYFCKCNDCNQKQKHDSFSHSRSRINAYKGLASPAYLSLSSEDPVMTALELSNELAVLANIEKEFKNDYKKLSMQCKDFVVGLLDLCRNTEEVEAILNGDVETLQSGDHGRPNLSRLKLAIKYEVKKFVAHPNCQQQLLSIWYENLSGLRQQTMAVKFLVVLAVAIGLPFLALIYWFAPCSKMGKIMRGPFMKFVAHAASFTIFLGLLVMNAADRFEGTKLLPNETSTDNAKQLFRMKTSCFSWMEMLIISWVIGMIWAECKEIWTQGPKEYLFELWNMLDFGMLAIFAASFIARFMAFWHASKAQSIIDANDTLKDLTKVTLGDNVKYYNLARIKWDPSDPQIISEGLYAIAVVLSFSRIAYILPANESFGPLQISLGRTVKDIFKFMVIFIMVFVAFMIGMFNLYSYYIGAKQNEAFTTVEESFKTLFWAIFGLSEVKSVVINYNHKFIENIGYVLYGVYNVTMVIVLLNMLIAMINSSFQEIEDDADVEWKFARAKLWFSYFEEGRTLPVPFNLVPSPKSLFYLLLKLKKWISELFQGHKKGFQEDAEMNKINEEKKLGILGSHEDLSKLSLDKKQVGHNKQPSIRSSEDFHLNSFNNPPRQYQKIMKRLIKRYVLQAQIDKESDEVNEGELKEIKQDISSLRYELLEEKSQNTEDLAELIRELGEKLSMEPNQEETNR
Assay: TRPC6 calcium flux assay (FLIPR, OAG-stimulated calcium influx)
Format: cell-based
Settings: HEK293 cells stably transfected with human TRPC6, read-out: hTRPC6 Potency
Experimental: Biological Example 1 TRPC6 Calcium Flux Assay
Potency of TRPC6 (Transient receptor potential channel family C6) inhibitors were measured by their inhibition of Calcium influx trigged by […] (1-Oleoyl-2-acetyl-sn-glycerol, Millipore Sigma, O6754) stimulation on HEK293 cells stablely transfected with human TRPC6 using a FLIPR tetra system. Cells were grown in a humidified environment at 37° C. under 5% CO2 using the growth medium with the following selective reagents (Dulbecco's Modified Eagle's Medium (DMEM) high glucose, 10% Fetal Bovine Serum, 1×PSGlu (penicillin-streptomycin glutamine), 1×NEAA (Non-essential amino acid), 1× Na Pyruvate and 200 ug/ml Hygromycin). For general passage, cells were grown to 70-90% confluency; the media was removed, and the cells were gently washed 2 times with calcium and magnesium free PBS (phosphate-buffered saline). Trypsin (3 mL) was applied for 5 minutes at 37° C. The cells were dislodged by rapping flask against base of a hand and 7 mL of growth medium was added to deactivate trypsin and re-suspend cells. The usual splitting schedule was 1:5 every 2-3 days.
Cells were plated the day before the assay, plating cell density is 1.0-1.5×10^4/25 μl/well in poly-D-lysine (PDL) coated 384-well plates using either multichannel pipettes or multidrop. These cells were first incubated with fluorescence dye at room temperature for 90-120 minutes after they were grown on PDL-coated 384-well black plates overnight (Dye loading buffer 10 ml example: 9 mL assay buffer, 1 mL, 10×PBX signal enhancer, 10 μL Calcium indicator). The cells were incubated with a dose of compounds for 25 minutes before being stimulated with TRPC6 agonist OAG. The OAG solution was prepared by adding OAG into assay buffer (Ca ringer solution base: 10 mM HEPES (4-(2-hydroxyethyl)-1-piperazine-ethanesulfonic acid), 4 mM MgCl2, 120 mM NaCl, 5 mM KCl, pH=7.2 @25° C.)+0.1% BSA+2 mM CaCl2) to the concentration of 0.2 mM/2% DMSO, which achieves a final on cell concentration of 50 uM/0.5% DMSO. 12.5 uL OAG mixture was added and the activation of the TRPC6 channel was measured by the change of intracellular Calcium levels on FLIPR terra system.
Data was acquired by measuring the fluorescent peak signal subtracted from the background during the 180 second imaging frame. Each data point is further normalized to 100% of OAG triggered signal vs. buffer. Table 16 provides the IC50 for each compound, which data is obtained by plotting peak signal over the compound dose.

IC50 [nM] | Compound
122 | N#CC1CN(C(=O)Cn2c(N3CC[C@@H](F)[C@H](N)C3)nc3cc(F)c(F)cc32)CCO1 (mixture of isomers) [Example 627, 4-(2-(2-((3R,4R)-3-amino-4-fluoropiperidin-1-yl)-5,6-difluoro-1H-benzo[d]imidazol-1-yl)acetyl)morpholine-2-carbonitrile]
132 | N[C@@H]1CN(c2nc3cc(F)c(F)cc3n2CC(=O)N2CCCC(O)C2)CC[C@H]1F (mixture of isomers) [Example 628, 2-(2-((3R,4R)-3-amino-4-fluoropiperidin-1-yl)-5,6-difluoro-1H-benzo[d]imidazol-1-yl)-1-(3-hydroxypiperidin-1-yl)ethanone]
240 | CN(CC1CCOC1)C(=O)Cn1c(N2CC[C@@H](F)[C@H](N)C2)nc2cc(F)c(F)cc21 (mixture of isomers) [Example 633, 2-(2-((3R,4R)-3-amino-4-fluoropiperidin-1-yl)-5,6-difluoro-1H-benzo[d]imidazol-1-yl)-N-methyl-N-((tetrahydrofuran-3-yl)methyl)acetamide]
3170 | COCC1CN(C(=O)Cn2c(N3CC[C@@H](F)[C@H](N)C3)nc3cc(F)c(F)cc32)CCO1 (mixture of isomers) [Example 647, 2-(2-((3R,4R)-3-amino-4-fluoropiperidin-1-yl)-5,6-difluoro-1H-benzo[d]imidazol-1-yl)-1-(2-(methoxymethyl)morpholino) ethanone]
> 1750 | CCN(CC1CCN(C(C)=O)C1)C(=O)Cn1c(N2CC[C@@H](F)[C@H](N)C2)nc2cc(F)c(F)cc21 (mixture of isomers) [Example 650, N-((1-acetylpyrrolidin-3-yl)methyl)-2-(2-((3R,4R)-3-amino-4-fluoropiperidin-1-yl)-5,6-difluoro-1H-benzo[d]imidazol-1-yl)-N-ethylacetamide]
> 3750 | CN(CC1CCS(=O)(=O)C1)C(=O)Cn1c(N2CC[C@@H](F)[C@H](N)C2)nc2cc(F)c(F)cc21 (mixture of isomers) [Example 652, 2-(2-((3R,4R)-3-amino-4-fluoropiperidin-1-yl)-5,6-difluoro-1H-benzo[d]imidazol-1-yl)-N-((1,1-dioxidotetrahydrothiophen-3-yl)methyl)-N-methylacetamide]
49.4 | N#Cc1ccc(Cn2c(N3CCCC4(CCCN4)C3)nc3ccccc32)nc1 (racemic) [Example 128, 6-((2-((5R)-1,7-diazaspiro[4.5-]decan-7-yl)-1H-benzimidazol-1-yl)methyl)-3-pyridinecarbonitrile, 6-((2-((5S)-1,7-diazaspiro[4.5]decan-7-yl)-1H-benzimidazol-1-yl)methyl)-3-pyridinecarbonitrile]
253 | CC1(CN)CCN(c2nc3ccccc3n2Cc2ccc(C#N)cc2)C1 (racemic) [Example 164, 4-((2-(3-(aminomethyl)-3-methylpyrrolidin-1-yl)-1H-benzo[d]imidazol-1-yl)methyl)benzonitrile]
2060 | N#Cc1ccc(Cn2c(N3C[C@@H](N)[C@H](c4ccccc4)C3)nc3ccccc32)cc1 (racemic) [Example 165, 4-((2-((3S,4R)-3-amino-4-phenylpyrrolidin-1-yl)-1H-benzo[d]imidazol-1-yl)methyl)benzonitrile & 4-((2-((3R,4S)-3 amino-4-phenylpyrrolidin-1-yl)-1H-benzo[d]imidazol-1-yl)methyl)benzonitrile]
18.3 | CC(c1ccccn1)N(C)C(=O)Cn1c(N2CC[C@@H](F)[C@H](N)C2)nc2cc(F)c(F)cc21 (mixture of isomers) [Example 608, 2-(2-((3R,4R)-3-amino-4-fluoropiperidin-1-yl)-5,6-difluoro-1H-benzo[d]imidazol-1-yl)-N-methyl-N-(1-(pyridin-2-yl)ethyl)acetamide]
274 | N#Cc1ccc(Cn2c(N3CC[C@@H](F)[C@H](N)C3)nc3ncccc32)cc1 (single isomer, unassigned) [Example 415]
476 | CN[C@@H]1CN(c2nc3c(F)cc(F)cc3n2[C@H](C)c2ccc(C#N)cn2)CC[C@H]1F (single isomer, unassigned) [Example 438]
36.7 | CN[C@@H]1CN(c2nc3c(F)cc(F)cc3n2[C@@H](C)c2ccc(C#N)cn2)CC[C@H]1F (single isomer, unassigned) [Example 439]
1340 | CN[C@@H]1CN(c2nc3cc(F)cc(F)c3n2[C@H](C)c2ccc(C#N)cn2)CC[C@H]1F (single isomer, unassigned) [Example 440]
2.23 | CN[C@@H]1CN(c2nc3cc(F)cc(F)c3n2[C@@H](C)c2ccc(C#N)cn2)CC[C@H]1F (single isomer, unassigned) [Example 441]
8.44 | CO[C@@H]1CCN(c2nc3ccc(F)cc3n2Cc2ncc(Cl)cn2)C[C@H]1N (single isomer, unassigned) [Example 456]
103 | CN(CC(F)(F)F)C(=O)Cn1c(N2CC[C@H](F)[C@H](N)C2)nc2ccc(F)cc21 (single isomer, unassigned) [Example 466]
61.1 | N[C@@H]1CN(c2nc3ccc(F)cc3n2Cc2ncc(Cl)cn2)CC[C@H]1O (single isomer, unassigned) [Example 496]
260 | CN(CC(F)F)C(=O)Cn1c(N2CC[C@@H](F)[C@H](N)C2)nc2cc(F)c(F)cc21 (single isomer, unassigned) [Example 634]
304 | CN(CC(F)(F)F)C(=O)Cn1c(N2CC[C@@H](F)[C@H](N)C2)nc2cc(F)c(F)cc21 (single isomer, unassigned) [Example 635]
1.5 | Cc1cc(Cn2c(N3CC[C@@H](F)[C@H](N)C3)nc3cc(F)c(F)cc32)ccc1C#N (stereo in doubt) [Example 345, 4-((2-((3R,4R)-3-amino-4-fluoro-1-piperidinyl)-5,6-difluoro-1H-benzimidazol-1-yl)methyl)-2-methylbenzonitrile]
1.5 | CCOc1ccc2nc(N3CC[C@@H](F)C(N)C3)n(Cc3ccc(C#N)cc3)c2c1 (stereo in doubt) [Example 414, 4-((2-((3R,4R)-3-amino-4-fluoro-1-piperidinyl)-6-ethoxy-1H-benzimidazol-1-yl)methyl)benzonitrile]
2.36 | N#Cc1ccc(Cn2c(N3CCC(F)(F)C(N)C3)nc3ccc(F)cc32)cc1 (stereo in doubt) [Example 416, 4-((2-((3R)-3-amino-4,4-difluoro-1-piperidinyl)-6-fluoro-1H-benzimidazo-1-yl)methyl)benzonitrile]
112 | CC(c1ncc(Cl)cn1)n1c(N2CC[C@@H](F)[C@H](N)C2)nc2cc(F)c(F)cc21 (stereo in doubt) [Example 508, (3R,4R)-1-(1-((R)-1-(5-chloropyrimidin-2-yl)ethyl)-5,6-difluoro-1H-benzo[d]imidazol-2-yl)-4-fluoropiperidin-3-amine]
0.696 | N#Cc1ccc(Cn2c(N3CCC[C@H](N)C3)nc3ccc(Cl)cc32)nc1 [Example 1, (S)-6-((2-(3-aminopiperidin-1-yl)-6-chloro-1H-benzo[d]imidazol-1-yl)methyl)nicotinonitrile]
